Results published in paper PMC9151520 (Archives of Toxicology, 2022).
Several values for one entry are separate records, joined by “and”; a condition that tells them apart may be missing. Equal entries are not always repeated. Where two headings read alike, the source gives them in different places.

How the values were obtained:
[1] = test system: p53 signaling (p53RE-bla HCT-116 cells)
p53RE-bla HCT-116 cells [2] = assay: cells; conditions: Homo sapiens
[3] = test system: p53 signaling (p53RE-bla HCT-116 cells); remark: listed apart in the source
p53RE-bla HCT-116 cells [4] = test system: p53RE-bla HCT-116 cells
[5] = test system: p53 signaling (p53RE-bla HCT-116 cells); assay: cells; type: cell-based
[6] = test system: p53 signaling (p53RE-bla HCT-116 cells); assay: cells; conditions: Homo sapiens
[7] = rat
[8] = HCT-116, read-out: EC50, viability, cherry pick confirmation
[9] = Homo sapiens, HCT-116, read-out: EC50, p53 activation, cherry pick confirmation
[10] = Homo sapiens, HCT-116, read-out: Efficacy, p53 activation, cherry pick confirmation
[11] = HCT-116, read-out: Viability EC50, cherry pick confirmation
[12] = HCT-116, read-out: Viability EC50, primary screening
[13] = Homo sapiens, HCT-116, read-out: p53 activation EC50, cherry pick confirmation
[14] = Homo sapiens, HCT-116, read-out: p53 activation EC50, primary screening
[15] = Homo sapiens, HCT-116, read-out: p53 activation efficacy, cherry pick confirmation
[16] = Homo sapiens, HCT-116, read-out: p53 activation efficacy, primary screening

For `Oc1cc(Cl)c(Cl)c(Cl)c1` [3,4,5-Trichlorophenol], the “EC50, p53 activation, cherry pick confirmation” value [1] was “inactive”, the “EC50, p53 activation, primary screening” value [1] was “inactive” and the “Efficacy, p53 activation, cherry pick confirmation” value [1] was “inactive”. The “Efficacy, p53 activation, primary screening” value [1] was “inactive”, the EC50 (p53RE-bla HCT-116 cells [2]; [8]) was 27.4 µM and the “EC50, p53 activation, cherry pick confirmation” value [3] was “inactive”. The “EC50, p53 activation, primary screening” value [3] was “inactive”, the “Efficacy, p53 activation, cherry pick confirmation” value [3] was “inactive” and the “Efficacy, p53 activation, primary screening” value [3] was “inactive”. The “EC50, viability, cherry pick confirmation” value (p53RE-bla HCT-116 cells [4]) was “inactive”, the “EC50, viability, primary screening” value (p53RE-bla HCT-116 cells [4]) was “inactive” and the “Efficacy, viability, primary screening” value (p53RE-bla HCT-116 cells [4]) was “inactive”. The EC50 [5, 9] was 48.4 µM, the EC50 ([5]; Homo sapiens, HCT-116, read-out: EC50, p53 activation, primary screening) was 40.3 µM and the Emax [5, 10] was 40.3%. It also gave an Emax ([5]; Homo sapiens, HCT-116, read-out: Efficacy, p53 activation, primary screening) of 25.7%.

In the case of `CO[C@@]12[C@H](COC(N)=O)C3=C(C(=O)C(C)=C(N)C3=O)N1C[C@@H]1N[C@@H]12` [Mitomycin C], the “EC50, p53 activation, cherry pick confirmation” value [1] is reported as “inactive”, the “EC50, p53 activation, primary screening” value [1] is reported as “inactive” and the “Efficacy, p53 activation, cherry pick confirmation” value [1] is reported as “inactive”. The “Efficacy, p53 activation, primary screening” value [1] was “inactive”, the EC50 (p53RE-bla HCT-116 cells [2]; [8]) was 17.8 µM and the “EC50, p53 activation, cherry pick confirmation” value [3] was “inactive”. For the same molecule, the “Efficacy, p53 activation, cherry pick confirmation” value [3] was “inactive”, the “EC50, viability, cherry pick confirmation” value (p53RE-bla HCT-116 cells [4]) was “inactive” and the “EC50, viability, primary screening” value (p53RE-bla HCT-116 cells [4]) was “inactive”. The “Efficacy, viability, primary screening” value (p53RE-bla HCT-116 cells [4]) was “inactive”, the EC50 [5, 9] was 2.12 µM and the Emax [5, 10] was 134%.

For `COC(=O)C1=C(C)NC(COC(N)=O)=C(C(=O)OC(C)C)C1c1cccc(Cl)c1Cl` (stereo not drawn) [Lemildipine], the “p53 activation EC50, cherry pick confirmation” value [1] was “inactive”, the “p53 activation EC50, primary screening” value [1] was “inactive” and the “p53 activation efficacy, cherry pick confirmation” value [1] was “inactive”. For the same molecule, the “p53 activation efficacy, primary screening” value [1] was “inactive”, the EC50 (p53RE-bla HCT-116 cells [2]; [11]) was 19.9 µM and the “p53 activation EC50, cherry pick confirmation” value [3] was “inactive”. The “p53 activation efficacy, cherry pick confirmation” value [3] was “inactive”, the EC50 ([6]; HCT-116, read-out: p53 activation EC50, primary screening) was 20.7 µM and the Emax ([6]; HCT-116, read-out: p53 activation efficacy, primary screening) was 59.7%. The “Viability EC50, cherry pick confirmation” value (p53RE-bla HCT-116 cells [4]) was “inactive”, the “Viability EC50, primary screening” value (p53RE-bla HCT-116 cells [4]) was “inactive” and the “Viability efficacy, primary screening” value (p53RE-bla HCT-116 cells [4]) was “inactive”. The “p53 activation EC50, cherry pick confirmation” value [5] was “inactive”, the “p53 activation EC50, primary screening” value [5] was “inactive” and the “p53 activation efficacy, cherry pick confirmation” value [5] was “inactive”. The “p53 activation efficacy, primary screening” value [5] was “inactive”.

In the case of `Oc1ccc(Cl)cc1Sc1cc(Cl)ccc1O` [Fenticlor], the “p53 activation EC50, cherry pick confirmation” value [1] is reported as “inactive”, the “p53 activation EC50, primary screening” value [1] is reported as “inactive” and the “p53 activation efficacy, cherry pick confirmation” value [1] is reported as “inactive”. The “p53 activation efficacy, primary screening” value [1] was “inactive”, the EC50 (p53RE-bla HCT-116 cells [2]; [12]) was 27.7 µM and the “p53 activation EC50, cherry pick confirmation” value [3] was “inactive”. For the same molecule, the “p53 activation EC50, primary screening” value [3] was “inactive”, the “p53 activation efficacy, cherry pick confirmation” value [3] was “inactive” and the “p53 activation efficacy, primary screening” value [3] was “inactive”. The “Viability EC50, primary screening” value (p53RE-bla HCT-116 cells [4]) was “inactive”, the EC50 (p53RE-bla HCT-116 cells [4]; read-out: Viability EC50, primary screening) was 18.7 µM and the EC50 [5, 13] was 18.1 µM. For the same molecule, the EC50 [5, 14] was 34.2 µM, the Emax [5, 15] was 54.9% and the Emax [5, 16] was 52.2%.

For `CCOP(=S)(OCC)Oc1nc(Cl)n(C(C)C)n1` [Isazofos], the “p53 activation EC50” value [1] was “inactive”, the EC50 ([1]; read-out: p53 activation EC50) was 1.62 µM and the EC50 [3] was 8.27 µM. For the same molecule, the p53 activation efficacy [3] was 50.5712 and 50.6263, the “Viability EC50” value (p53RE-bla HCT-116 cells [4]) was “inactive” and the Viability efficacy (p53RE-bla HCT-116 cells [4]) was “inactive”. The “Depletion after 16 h of incubation with cells” value [7] was 97.88 ± 0.31%, the “p53 activation EC50” value [5] was “inactive” and the p53 activation efficacy [5] was “inactive”.

For `CC(C)C[C@H](NC(=O)[C@H](Cc1ccccc1)NC(=O)c1cnccn1)B(O)O` [Bortezomib], the “p53 activation EC50, cherry pick confirmation” value [1] was “inactive”, the “p53 activation EC50, primary screening” value [1] was “inactive” and the “p53 activation efficacy, cherry pick confirmation” value [1] was “inactive”. The “p53 activation efficacy, primary screening” value [1] was “inactive”, the EC50 (p53RE-bla HCT-116 cells [2]; [11]) was 0.397 µM and the EC50 (p53RE-bla HCT-116 cells [2]; [12]) was 0.428 µM. For the same molecule, the “p53 activation EC50, cherry pick confirmation” value [3] was “inactive”, the “p53 activation EC50, primary screening” value [3] was “inactive” and the “p53 activation efficacy, cherry pick confirmation” value [3] was “inactive”. For the same molecule, the “p53 activation efficacy, primary screening” value [3] was “inactive”, the “Viability EC50, cherry pick confirmation” value (p53RE-bla HCT-116 cells [4]) was “inactive” and the “Viability EC50, primary screening” value (p53RE-bla HCT-116 cells [4]) was “inactive”. For the same molecule, the EC50 [5, 13] was 0.101 µM, the EC50 [5, 14] was 0.0122 µM and the Emax [5, 15] was 134%. For the same molecule, the Emax [5, 16] was 104%.

In the case of `CC(C)=CCC1=C(O)C(=O)c2ccccc2C1=O` [Lapachol], the “p53 activation EC50” value [1] is reported as “inactive”, the EC50 (p53RE-bla HCT-116 cells [2]; HCT-116, read-out: Viability EC50) is reported as 1.38 µM and the “p53 activation EC50” value [3] is reported as “inactive”. For the same molecule, the “Viability EC50” value (p53RE-bla HCT-116 cells [4]) was “inactive”, the p53 activation efficacy [5] was 104.839 and the EC50 ([5]; read-out: p53 activation EC50) was 3.38 µM.
